Consider 85 compounds from a melting point compilation (Tetko et al.; mined from patent text by program, amines drawn as free bases though some values may be those of a salt).

For `COc1ccc(C(=O)OC2C(OC(C)=O)C=C(C)C(=O)CC2(C)C)cc1` (stereo not given), the melting point (as a rule, the temperature of the solid-liquid transition) lay in the range of 78 to 80 °C. In the case of `C[C@H](NC(=O)OCC1c2ccccc2-c2ccccc21)C(=O)O` it was 144 to 146 °C.

The compound `COC(=O)CC[C@H](NC(=O)c1cn(C(c2ccccc2)(c2ccccc2)c2ccccc2)c(C#Cc2cnc3nc(NC(=O)C(C)(C)C)nc(O)c3c2)n1)C(=O)OC` came in with a melting point of 93 to 95 °C.

The compound `CC(C)(C)C(NC(=O)CCCc1cccnc1)NC(=NC#N)Nc1cccc2ncccc12` (stereo not given) displayed a melting point of 181 to 182 °C. `CCCC=Nc1cc(CO)cc(Nc2c3ccccc3nc3ccccc23)c1` gave a melting point of 228 to 230 °C. Then `CC(=O)OC1CC2=CCC3C4CCC(C(C)CCCC(C)C)C4(C)CCC3C2(C)C(O)C1O` (stereo not given), with 131 to 133 °C. Compound `CCCCCCCCCCNc1ccc(C(=O)Nc2cc(C(=O)NCCSC)ccc2OC)cc1` came in with a melting point of 100 to 104 °C. In the case of `CS(=O)(=O)NC(=O)CCCCBr` it was 88 to 89 °C; in that of `CCOCC(=O)Nc1c(NCCNC(=O)OC(C)(C)C)c(C)c(C)n2nnnc12`, 138 to 142 °C. Then `Fc1ccc(Sc2c[nH]c3ncccc23)cc1`, with 183 to 184 °C. The compound `OCc1nccc(N2CCCCC2)c1Br` yielded a melting point of 51 to 53 °C. Then `O=C(CCCCCCS(=O)c1ccc(Cl)cc1)NO` (stereo not given), with 103 to 105 °C; and `COc1ccc(N2CCN(c3c(C)c(C)c4c(c3C)CC3(CCOCC3)O4)CC2)cc1`, with 153 to 155 °C.

As to `CNC(=O)[C@@H]1CCCN1C(=O)[C@H](C)NC(=O)OCc1ccccc1`, the melting point is 126 to 129 °C.

Compound `CC(C)OP(=O)(/C=C/CCn1cnc2c(N)ncnc21)OC(C)C` yielded a melting point of 121 to 122 °C. Regarding `CC(C)Cn1cc(F)c(-n2cncn2)nc1=O`, the melting point fell in the range of 150 to 153 °C. In the case of `CC1(C)COC(C=Cc2ccc([N+](=O)[O-])cc2)OC1` it was 86.5 to 88.5 °C; in that of `CCOC(=O)C(C)(C)n1c(=O)[nH]c2ccccc2c1=O`, 133 to 134 °C. Then `CC1=NS(=O)(=O)N(C(c2ccccc2)c2ccccc2)C=C1`, with 174 to 177 °C. In the case of `COC(=O)C1=C(C)NC(C)=C(S(=O)(=O)c2ccc(O)cc2)C1c1ccccc1Cl` (stereo not given) it was 223 to 225 °C. Compound `COc1ccn2nc(-c3ccccc3)c(-c3ccc(=O)n(C4CCOC4)n3)c2c1` (stereo not given) showed a melting point of 207 to 208 °C.

As for `CN(C)N1C2=NCCN2C(=O)c2ccccc21`, the melting point was 197 to 198 °C.

`CC(CC(=O)c1cccc(C(F)(F)F)c1)C(=O)O` (stereo not given) yielded a melting point of 90 to 91 °C. Then `COc1ccn2cc(-c3ccc(C)c(C)c3)nc2c1`, with 175 °C; and `N#Cc1cnn(-c2ccc(C=O)cc2)n1`, with 148 to 150 °C; and `OCC1COC(Cn2cncn2)(c2ccc(Oc3ccccc3)cc2)O1` (stereo not given), with 111 to 112 °C. Then `O=C(O)Cc1cnn(-c2ccc(Cl)cc2)c1-c1ccccc1`, with 110 to 111 °C; and `CC(C)c1cccc(C(C)C)c1NS(=O)(=O)CC(=S)Oc1c(C(C)C)cccc1C(C)C`, with 169 to 171 °C.

In the case of `O=C1CCCN1Cc1ccc(CCn2cnc3cc(-c4ccc(Cl)cc4)sc3c2=O)cc1`, the melting point was in the range of 218 to 221 °C. `CCOC(=O)C=CC=Cc1ccc(OC)c(C)c1C` returned a melting point of 92 to 95 °C. Then `COc1ccc(Cl)cc1NC(=O)[C@H]1[C@H](c2ccc(S(N)(=O)=O)c(C)c2)C1(C)C` (relative stereo), with 118 to 121 °C; and `Cc1ccc(-c2ncc3c(n2)CCCCC3)nc1-c1ccccc1`, with 151 to 154 °C; and `CC(C)(C)OC(=O)N1CCC(OCc2ccccc2)C1CC(=O)Cn1cnc2cccnc2c1=O` (stereo not given), with 229 °C.

Compound `Nc1c(OCCCl)cc(Cl)cc1[N+](=O)[O-]` displayed a melting point of 109 to 110 °C. Consider `COc1ccc2c(c1)c(SC(C)(C)C)c(CC(C)(C)C(=O)O)n2Cc1ccc(Cl)cc1`, for which the melting point was in the range of 190 to 191 °C. In the case of `CCCC(C(=O)N(C)C)n1cc(Cl)c(-c2ccccc2)n1` (stereo not given) it was 85 to 87 °C. Then `Cc1cccc(Nc2ccc(Nc3ncnc4cc(-c5ccccc5)sc34)cc2)c1`, with 170 to 171 °C. In the case of `O=C1CC(=CN2CCOCC2)Oc2c(OCc3ccccc3)cccc21` it was 107 to 108 °C; in that of `COc1cc(OC)nc(C2(C#N)OC(=O)c3c(-c4cccs4)ccnc32)n1` (stereo not given), 187 to 188 °C; in that of `CC(C)(C)NC(=O)c1nn(-c2ccc(F)cc2Cl)c2c1C1CCC2C1` (stereo not given), 122 to 124 °C.

With `Cc1ccc2c(C3=C(c4cn(C)c5ccccc45)C(=O)NC3=O)cn(C)c2c1`, the melting point lay within 264 to 266 °C. `COc1ccc(-c2coc(C(=O)O)cc2=O)cc1` had a melting point of 232 to 234 °C.

`CN1C(=O)c2cccnc2N(CCO)c2ccccc21` had a melting point of 133 to 134 °C. Then `CCC1(C)CC(NC(=O)c2cccc([N+](=O)[O-])c2O)CC(C)(C)C1` (stereo not given), with 125 to 128 °C; and `CCOC(=O)C(=C1CCCN1C)c1cc(OC)c(OC)c(OC)c1`, with 115 to 116 °C; and `CSc1ccc(C2=C(c3ccc(C(F)(F)F)cc3)CCC2)cc1`, with 60 to 61.5 °C. In the case of `COc1ccc(C(C#Cc2ccccc2)Cc2noc(C)n2)cc1OC1CCCC1` (racemic) it was 86 to 90 °C; in that of `O=C(OCC(O)CO)C(=O)c1ccc(OCCOc2ccc3ccccc3c2)cc1` (stereo not given), 124 to 125 °C.

On to `CS(=O)(=O)Nc1ccc(C(=O)NC(=O)N2CCC(Cc3ccccc3)CC2)cc1`, for which the melting point lay in the range of 97.5 to 100 °C.

Compound `COc1c(CN2CCOCC2)cccc1-c1nc2c(N[C@H]3[C@@H](C(N)=O)[C@@H]4C=C[C@H]3C4)c(Cl)cnc2[nH]1` gave a melting point of 133 to 137 °C. Then `CC(C)c1ccc2c(c1)c(SCC1CC1)c(CC(C)(C)C(=O)O)n2Cc1ccc(Cl)cc1`, with 123 to 124 °C.

`CC(=O)NC(CSC(c1ccccc1)(c1ccccc1)c1ccccc1)C(=O)NCCSC(=O)C(C)C` (stereo not given): the melting point was 147 to 148 °C. Then `Cn1c(=O)ccc2cc(COc3cccc(C4(C#N)CCOCC4)c3)ccc21`, with 149 to 150 °C. In the case of `O=C(Nc1nc(-c2ccco2)c(-c2ccc(=O)n(Cc3ccccc3)c2)s1)c1ccncc1` it was 215 to 218 °C. In the case of `O=C(O)COC(=O)c1ccccc1O` it was 131 to 132 °C; in that of `CS(=O)Cc1cc(C(F)(F)F)ccc1N` (stereo not given), 122 to 125 °C.

The compound `CC(Br)c1ccc(-c2ccc(C(=O)c3ccccc3)cc2)cc1` (stereo not given) showed a melting point of 132 to 134 °C. Then `CCC(=O)NCCC1CCc2c(OC)ccc3ccc(OC)c1c23` (stereo not given), with 111 °C. Compound `O=c1c2cccnc2n(-c2cccc(CO)c2)c(=O)n1Cc1cccnc1` gave a melting point of 197 to 198 °C. `CCOP(=O)(OCC)c1ccc2cc(I)cc(-c3cccc4ccccc34)c2n1` returned a melting point of 127 to 128 °C. Then `COc1cc2c(c3c1OC(C)(C)C3)C(c1ccccc1-c1ccncc1)=NC(C)(C)C2`, with 187 to 189 °C; and `O=C(c1ccccc1)N1CCC(CCl)CC1`, with 68 to 70 °C. `CCC=NNC(=O)c1cc(OC)cc(Oc2cccc(C(F)(F)F)c2)n1` registered a melting point of 154 to 155 °C. In the case of `Cc1ccc(N2C(=O)C(O)=C(C(=O)c3ccc(C(C)C)cc3)C2c2ccc(Cl)cc2)nn1` (stereo not given) it was 258 to 260 °C; in that of `Cc1ccc(Cc2cnc(NCCNc3ncc(Cl)cc3C)[nH]c2=O)cn1`, 112 to 115 °C; in that of `CCCOc1ccnc(CS(=O)c2nc3ccccc3[nH]2)c1C` (stereo not given), 81 to 83 °C.

`CCOCc1nc2c(N)nc(C)c(C)c2n1CCCCS(N)(=O)=O` registered a melting point of 200 to 202 °C.

For the compound `COc1ccc(S(=O)(=O)N2C(=O)C(OCC(=O)N3CCN(c4ccncc4)CC3)(c3ccccc3OC(C)C)c3cc(Cl)ccc32)c(OC)c1` (stereo not given), the melting point was in the range of 201 to 203 °C. In the case of `Cc1ccc(-c2cc(CN3CCN(C(=O)OC(C)(C)C)CC3)c(=O)n(CC(C)C)n2)cc1F` it was 68.7 to 69 °C; in that of `Cc1cc(-n2ccnc2)c2cccc(OCc3c(Cl)ccc(S(=O)(=O)N4CCC[C@H]4C(=O)NCCN4CCCCC4)c3Cl)c2n1`, 108 °C; in that of `O=S(=O)(c1ccc(Cl)cc1)C1(c2cnccc2Cl)CCCCC1`, 145 to 147 °C. Turning to `CC(C)CC(=O)Nc1cccc(-c2ccnc3c(-c4ccc(-c5ccccc5)cc4)cnn23)c1`, the melting point was 157 to 160 °C. Compound `Cc1ccccc1CC(=O)N1CCN(c2nccs2)CC1` yielded a melting point of 110 to 111 °C.

Regarding `Cn1cc(C(=O)O)c(=O)c2cc3cc(F)c(N4CCNC(c5ccccc5F)C4)cc3nc21` (racemic), the melting point worked out at 264 °C. Then `O=C(O)CCSCc1nccc2ccccc12`, with 126 to 130 °C. In the case of `CCCCCCCCCCCC(=O)OCC(COCc1ccccc1)OC(=O)CCCCCCCCCCC` (stereo not given) it was 30 to 31 °C. Then `CC(=O)NCC1CC(c2ccc(-n3ccc(CO)c3)c(F)c2)=NO1` (single isomer, unassigned; (-)), with 162 to 164 °C; and `COC(=O)C(Cl)Cc1ccc2ccc(Oc3c(Cl)cc(C(F)(F)F)cc3Cl)cc2c1` (stereo not given), with 136 °C. In turn, `COc1ccc(-c2nc(Sc3ccc(Cl)cc3)[nH]c2-c2ccc(OC)cc2)cc1` gave a melting point of 121 to 122 °C. Take `CC(C)(C)c1cc(NC(=O)Nc2ccc(Oc3cccc(NC(=O)OCc4ccccc4)c3)cc2)no1`: the melting point fell in the range of 73 to 75 °C.

In the case of `Cc1ccc(N2C(=O)C(O)=C(C(=O)c3ccc(CC(C)C)cc3)C2c2ccc(OC(F)(F)F)cc2)nn1` (stereo not given), the melting point came to 260 °C. `Cc1ccc2[nH]c(CO)cc2c1`: the melting point lay in the range of 94 to 95 °C.

For the compound `CC12CCC3c4ccc(O)cc4CCC3(C)C1CCC2O` (stereo not given), the melting point was 168 to 170 °C. In the case of `CCc1nc(/C=C/c2cn(-c3ccccc3)nc2OCc2ccc(OCc3nc(/C=C/C(=O)O)oc3C)c(OC)c2)cs1` it was 125 to 126 °C. In the case of `CCCCCCCCOc1ccc(-c2nc(-c3ccccc3)c(-c3ccccc3)[nH]2)cc1` it was 178 °C.
